From US11266650B2, “Pharmaceutical composition for preventing and treating nonalcoholic steatohepatitis, hepatic fibrosis, and liver cirrhosis, comprising adenosine derivatives” (FUTURE MEDICINE CO., LTD., priority 2016, dated 2022)
Several values for one entry are separate records, joined by “and”; a condition that tells them apart may be missing. Equal entries are not always repeated.

Experiments:
pKa = format: physicochemical
Equilibrium solubility = format: physicochemical; conditions: thermodynamic from solid
rats [1] = assay: Single-dose toxicity in rats; conditions: rat, in vivo
PAMPA = format: in vitro ADME
rats [2] = conditions: rat, in vivo
hERG channel protein = hERG channel protein (Homo sapiens, UniProt Q12809); assay: hERG ligand binding assay (fluorescence polarization)
[3] = Plasma stability, human plasma; format: in vitro ADME
Experimental: (§1) Plasma stability and protein binding were measured using rat and human plasma.

[4] = Plasma protein binding, human plasma; format: in vitro ADME
Experimental: as §1

ICR mice = assay: Toxicity assay, intraperitoneal injection, mice; conditions: i.p. 20, 10 and 1 mg/kg
Experimental: (§4) The compounds synthesized in the examples of the present invention were assayed for cytotoxicity in animals.

[5] = system: histidine-requiring Salmonella (strains TA98, TA100, TA1535 and TA1537) and tryptophan-requiring Escherichia coli (strain WP2uvrA (pKM101)); format: cell-based
Source text: In addition, for each strain, the number of back-mutant colonies in the positive control group certainly exceeded twice the number of back-mutant colonies in the negative control group.

[6] = Plasma stability, rat plasma; format: in vitro ADME
Experimental: as §1

Kinetic solubility = format: physicochemical; conditions: kinetic from dmso stock
each cell line = assay: Cytotoxicity, Cyto X cell viability assay kit; format: cell-based
[7] = Plasma protein binding, rat plasma; format: in vitro ADME
Experimental: as §1

[8] = Pharmacokinetic test in ICR male mice (Experimental Example 13); format: in vivo; conditions: mouse, plasma, po, P.O., 10 mg/kg
Experimental: (§2) Intravenous administration was performed through a tube inserted into the femoral vein, and oral administration was performed using oral gavage.
(§3) After the administration, the experimental animals' blood was taken at predetermined time intervals for 24 hours. Then, the blood was centrifuged to separate plasma. The plasma samples were pretreated with a suitable organic solvent, and then the concentration of the plasma samples was analyzed by LC-MS/MS. […] The results of noncompartmental pharmacokinetic parameters calculated from the blood concentration-time data are shown in Tables 9 through 13. In FIGS. 12 through 16, I.V. represents an intravenous administration group, P.O. represents an oral administration group, and the definition of each parameter in Tables 9 through 13 is shown in Table 14.

Log P = format: physicochemical
SPF Sprague Dawley rats = assay: Toxicity assay, intraperitoneal injection, rats; conditions: i.p. 20, 10 and 1 mg/kg
Experimental: as §4

[9] = Pharmacokinetic test in SD male rats (Experimental Examples 11, 12, 15); format: in vivo; conditions: plasma, rat; for Vd: read-out: Vss; for bioavailability: read-out: Ft (bioavailability)
Experimental: as §2, §3

[10] = Pharmacokinetic test in dogs (Experimental Example 14); format: in vivo; conditions: dog, plasma; for bioavailability: read-out: Ft (bioavailability)
Experimental: as §2, §3

[11] = po, 5 mg/kg, P.O., 5 mg/kg (Exp. 11-2)
[12] = po, 10 mg/kg, 10 mg/kg (Exp. 12-2)
[13] = po, 10 mg/kg, oral 10 mg/kg in 0.5% MC (Exp. 15-1)
[14] = po, 10 mg/kg, oral 10 mg/kg in Vehicle: 5% DMSO, 40% PEG400 and 55% DW (Exp. 15-2)
[15] = po, 10 mg/kg, G2, PO, dissolved in a solvent
[16] = po, 10 mg/kg, G3, PO, powder state in a capsule

hERG channel protein, sequence (Q12809 whole entry): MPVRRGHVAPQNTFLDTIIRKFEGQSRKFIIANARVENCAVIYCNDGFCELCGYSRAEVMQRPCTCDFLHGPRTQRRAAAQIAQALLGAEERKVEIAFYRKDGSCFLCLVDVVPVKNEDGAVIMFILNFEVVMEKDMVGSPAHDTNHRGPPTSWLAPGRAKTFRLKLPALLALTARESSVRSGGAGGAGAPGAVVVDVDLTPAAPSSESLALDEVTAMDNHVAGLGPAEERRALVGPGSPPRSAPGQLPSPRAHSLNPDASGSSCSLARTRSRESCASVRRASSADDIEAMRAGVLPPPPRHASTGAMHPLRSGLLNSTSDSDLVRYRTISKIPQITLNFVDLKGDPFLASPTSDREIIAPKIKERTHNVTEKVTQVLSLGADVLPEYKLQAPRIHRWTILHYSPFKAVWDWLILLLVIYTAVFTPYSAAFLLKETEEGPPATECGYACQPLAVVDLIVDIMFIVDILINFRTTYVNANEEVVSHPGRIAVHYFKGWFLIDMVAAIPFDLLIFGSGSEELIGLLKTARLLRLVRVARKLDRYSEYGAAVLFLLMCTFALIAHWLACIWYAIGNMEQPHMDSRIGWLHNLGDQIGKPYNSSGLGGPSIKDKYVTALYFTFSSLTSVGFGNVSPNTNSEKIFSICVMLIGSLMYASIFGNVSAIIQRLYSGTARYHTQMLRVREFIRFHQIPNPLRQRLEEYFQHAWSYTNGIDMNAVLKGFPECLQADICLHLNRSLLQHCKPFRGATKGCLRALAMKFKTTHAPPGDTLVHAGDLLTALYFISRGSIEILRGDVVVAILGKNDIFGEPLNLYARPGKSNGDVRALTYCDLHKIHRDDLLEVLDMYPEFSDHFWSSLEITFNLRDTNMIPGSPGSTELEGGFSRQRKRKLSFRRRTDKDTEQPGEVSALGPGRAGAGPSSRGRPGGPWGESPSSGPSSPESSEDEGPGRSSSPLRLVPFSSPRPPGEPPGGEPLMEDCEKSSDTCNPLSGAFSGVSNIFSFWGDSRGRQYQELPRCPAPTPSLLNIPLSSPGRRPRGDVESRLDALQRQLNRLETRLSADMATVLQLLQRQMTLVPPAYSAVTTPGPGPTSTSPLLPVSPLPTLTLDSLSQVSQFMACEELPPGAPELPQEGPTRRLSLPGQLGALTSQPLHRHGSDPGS

O[C@@H]1[C@H](O)CS[C@H]1n1cnc2c(NCc3cccc(Cl)c3)nc(Cl)nc21 [Example 2, (2R,3R,4S)-2-(2-Chloro-6-(3-chlorobenzylamino)-9H-purin-9-yl)tetrahydrothiophen-3,4-diol]
pKa (pKa): 11.3
solubility thermodynamic (Equilibrium solubility): 6.7 µM and 2.76 µg/mL
Toxicity, Single-dose toxicity evaluation (rats [1]): Not detected
PAMPA (PAMPA): −4.49
death after single dose (rats [2]): no animals died
Toxicity, hERG ligand binding assay evaluation (hERG channel protein): Not detected
inhibition rate, hERG ligand binding (hERG channel protein; 10 μM of the compound): ≤ 50%
Plasma stability [3]: 98.9%
fraction unbound [4]: 0.013
weight gain or feed intake vs control group (ICR mice): No difference in weight gain or feed intake
death (ICR mice; 24 hrs observation): No death was observed
Toxicity, Genotoxicity evaluation [5]: Not detected
number of back-mutant colonies vs negative control group ([5]; all doses of each strain, with and without metabolic activation): did not exceed twice the number of back-mutant colonies of the negative control group
Plasma stability [6]: > 99.9%
solubility kinetic (Kinetic solubility): 361 µM and 149 µg/mL
Toxicity, Cytotoxicity evaluation (each cell line): Not detected
IC50 (each cell line; each cell line): ≥ 10 µM
fraction unbound [7]: 0.098
AUC(0-inf) [8]: 102 ± 13.5 µg·h/mL
AUC(0-t) [8]: 100 ± 13.2 µg·h/mL
Cmax [8]: 8.57 ± 1.52 µg/mL
Tmax [8]: 6.13 ± 3.75 h
half-life [8]: 3.61 ± 0.3 h
logP (Log P): 3.18
weight gain or feed intake vs control group (SPF Sprague Dawley rats): No difference in weight gain or feed intake
death (SPF Sprague Dawley rats; 24 hrs observation): No death was observed
clearance ([9]; iv, I.V., 5 mg/kg): 0.363 L/h/kg
Vd ([9]; iv, I.V., 5 mg/kg): 0.881 ± 0.203 L/kg
bioavailability ([9]; po, P.O., 5 mg/kg): 49.7%
clearance ([9]; IV, 2 mg/kg): 0.365 L/h/kg
Vd ([9]; IV, 2 mg/kg): 2.27 ± 0.863 L/kg
bioavailability ([9]; PO, 10 mg/kg (Exp. 12-2)): > 99.9%
AUC(0-inf) ([9]; iv, 2 mg/kg): 5.49 ± 0.3 µg·h/mL
AUC(0-t) ([9]; iv, 2 mg/kg): 5.2 ± 0.548 µg·h/mL
half-life ([9]; iv, 2 mg/kg, 2 mg/kg (Exp. 12-1)): 6 ± 2.98 h
AUC(0-inf) ([9]; iv, 5 mg/kg, I.V.): 14.1 ± 2.59 µg·h/mL
AUC(0-t) ([9]; iv, 5 mg/kg, I.V.): 14 ± 2.55 µg·h/mL
half-life ([9]; iv, 5 mg/kg, I.V., 5 mg/kg (Exp. 11-1)): 3.6 ± 0.589 h
AUC(0-inf) ([9]; po, 5 mg/kg, P.O.): 7.04 ± 0.551 µg·h/mL
AUC(0-t) ([9]; po, 5 mg/kg, P.O.): 6.98 ± 0.584 µg·h/mL
Cmax [9, 11]: 1.45 ± 0.255 µg/mL
Tmax [9, 11]: 1.33 ± 0.577 h
half-life [9, 11]: 3.26 ± 0.945 h
AUC(0-inf) [9, 12]: 26.7 ± 0.075 µg·h/mL
AUC(0-t) [9, 12]: 26.5 ± 5.88 µg·h/mL
Cmax [9, 12]: 2.71 ± 0.183 µg/mL
Tmax [9, 12]: 2.42 ± 3.13 h
half-life [9, 12]: 3.34 ± 0.075 h
AUC(0-inf) [9, 13]: 41.4 ± 26 µg·h/mL
AUC(0-t) [9, 13]: 40.1 ± 26.8 µg·h/mL
Cmax [9, 13]: 5.72 ± 6.11 µg/mL
Tmax [9, 13]: 1.33 ± 0.58 h
half-life [9, 13]: 4.56 ± 2.8 h
AUC(0-inf) [9, 14]: 26.7 ± 0.075 µg·h/mL
AUC(0-t) [9, 14]: 26.5 ± 5.88 µg·h/mL
Cmax [9, 14]: 2.71 ± 0.183 µg/mL
Tmax [9, 14]: 2.42 ± 3.13 h
half-life [9, 14]: 3.34 ± 0.075 h
AUC(0-inf) ([10]; iv, 2 mg/kg, G1, IV): 1.07 ± 0.62 µg·h/mL
AUC(0-t) ([10]; iv, 2 mg/kg, G1, IV): 0.948 ± 0.464 µg·h/mL
half-life ([10]; iv, 2 mg/kg, G1, IV): 2.17 ± 0.867 h
bioavailability ([10]; po, 10 mg/kg, G2, PO, 10 mg/kg, dissolved in a solvent): 82%
AUC(0-inf) [10, 15]: 3.99 ± 1.09 µg·h/mL
AUC(0-t) [10, 15]: 3.88 ± 1.03 µg·h/mL
Cmax [10, 15]: 0.467 ± 0.073 µg/mL
Tmax [10, 15]: 1.67 ± 0.58 h
half-life [10, 15]: 4.21 ± 1.41 h
bioavailability ([10]; po, 10 mg/kg, G3, PO, 10 mg/kg, powder state in a capsule): > 99.9%
AUC(0-inf) [10, 16]: 6.35 ± 0.83 µg·h/mL
AUC(0-t) [10, 16]: 5.64 ± 0.84 µg·h/mL
Cmax [10, 16]: 1.14 ± 0.23 µg/mL
Tmax [10, 16]: 2 h
half-life [10, 16]: 5.53 ± 3.06 h
clearance ([10]; G1, IV, 2 mg/kg): 2.27 L/h/kg
Vd ([10]; G1, IV, 2 mg/kg, read-out: Vss): 6.02 ± 0.79 L/kg
